Assay [1] in a line: Inhibition of Hepatitis C virus genotype 3a full-length NS3 protease assessed as overall/observed affinity by surface plasmon resonance biosensor-based interaction kinetic analysis. Also on record: species or system Hepatitis C virus subtype 3a. (In SPR one partner is held on a chip, and binding of the other changes the refractive index at the surface.)
A short description of assay [2]: Inhibition of Hepatitis C virus genotype 1a full-length NS3 protease assessed as overall/observed affinity by surface plasmon resonance biosensor-based interaction kinetic analysis. Also on record: species or system Hepatitis C virus subtype 1a.
The nature of assay [3]: Inhibition of Hepatitis C virus genotype 1b full-length NS3 protease assessed as equilibrium dissociation constant by surface plasmon resonance biosensor-based interaction kinetic analysis. Also on record: species or system Hepatitis C virus subtype 1b.
Assay [4] can be described thus: Inhibition of Hepatitis C virus genotype 1b full-length NS3/NS4A protease assessed as overall/observed affinity by surface plasmon resonance biosensor-based interaction kinetic analysis. On the set-up: species or system Hepatitis C virus subtype 1b.
Assay [5] is described as follows: Inhibition of Hepatitis C virus genotype 1b full-length NS3 protease assessed as overall/observed affinity by surface plasmon resonance biosensor-based interaction kinetic analysis. On the set-up: species or system Hepatitis C virus subtype 1b.
Assay [6] in a line: Inhibition of Hepatitis C virus genotype 1a full-length NS3/NS4A protease assessed as overall/observed affinity by surface plasmon resonance biosensor-based interaction kinetic analysis. On the set-up: species or system Hepatitis C virus subtype 1a.
A short description of assay [7]: Inhibition of Hepatitis C virus genotype 1b full-length NS3/NS4A protease assessed as equilibrium dissociation constant by surface plasmon resonance biosensor-based interaction kinetic analysis. On the set-up: species or system Hepatitis C virus subtype 1b.
Assay [8] in a line: Inhibition of Hepatitis C virus genotype 1b NS3 protease domain assessed as equilibrium dissociation constant by surface plasmon resonance biosensor-based interaction kinetic analysis. Also on record: species or system Hepatitis C virus subtype 1b.
A short description of assay [9]: Inhibition of Hepatitis C virus genotype 1b NS3 protease domain assessed as overall/observed affinity by surface plasmon resonance biosensor-based interaction kinetic analysis. Also on record: species or system Hepatitis C virus subtype 1b.
Assay [10] is described as follows: Inhibition of Hepatitis C virus genotype 1a full-length NS3/NS4A protease assessed as equilibrium dissociation constant by surface plasmon resonance biosensor-based interaction kinetic analysis. On the set-up: species or system Hepatitis C virus subtype 1a.
Assay [11] in a line: Inhibition of Hepatitis C virus genotype 3a full-length NS3 protease assessed as equilibrium dissociation constant by surface plasmon resonance biosensor-based interaction kinetic analysis. On the set-up: species or system Hepatitis C virus subtype 3a.
Assay [12] is described as follows: Inhibition of Hepatitis C virus genotype 1a full-length NS3 protease assessed as equilibrium dissociation constant by surface plasmon resonance biosensor-based interaction kinetic analysis. Also on record: species or system Hepatitis C virus subtype 1a.

Where a SMILES comes first, the peptide text is derived from it. [ ]: non-standard residue; d: D form. dGla = N[C@H](CC(C(=O)O)C(=O)O)C(=O)O; Cha = N[C@@H](CC1CCCCC1)C(=O)O

`CC[C@H](C)[C@H](NC(=O)[C@H](CC(C)C)NC(=O)[C@@H](CC(C(=O)O)C(=O)O)NC(=O)[C@H](CC(=O)O)NC(C)=O)C(=O)N[C@@H](CC1CCCCC1)C(=O)N[C@@H](CS)C(=O)O` (Ac-D[dGla]LI[Cha]C-OH): the Kd in [1] worked out at 870 nM; in assay [2] it was 200 nM; in assay [3], 7200 nM; in assay [4] it was 2000 nM; in assay [5], 5600 nM; in assay [6] it was 17000 nM. Further, the Kd in [7] was determined as 5800 nM; in assay [8], 7.2 µM; in assay [9] it was 3.3 µM; in [10], 36 µM; in [11] it was 1400 nM; in assay [12] it was 3900 nM.
In the case of `CC(C)(C)NC(=O)N[C@H](C(=O)N1C[C@H]2[C@@H]([C@H]1C(=O)NC(CC1CCC1)C(=O)C(N)=O)C2(C)C)C(C)(C)C` (stereo partly specified) [BOCEPREVIR], the Kd in [1] came to 3.9 nM; in assay [3], 16000 nM; in assay [4], 38 nM; in assay [5], 90 nM; in assay [7], 7700 nM; in assay [8] it was 16 µM. Further, the Kd worked out at 3.2 µM in [9] and 1700 nM in assay [11].
For the compound `COc1ccc2c(O[C@@H]3C[C@H]4C(=O)N[C@]5(C(=O)O)C[C@H]5/C=C\CCCCC[C@H](NC(=O)OC5CCCC5)C(=O)N4C3)cc(-c3csc(NC(C)C)n3)nc2c1` [CILUPREVIR], the Kd turned out to be 160 nM in [1]; 1.3 nM in assay [2]; 220 nM in [3]; 71 nM in [4]; 67 nM in [5]; 2.1 nM in [6]. Besides, the Kd in [7] came to 71 nM; in assay [8] it was 0.0073 µM; in assay [9], 0.0025 µM; in assay [10] it was 0.0021 µM; in [11], 3300 nM; in [12], 3 nM.
Turning to `CC(C)(C)OC(=O)N[C@H]1CCCCC/C=C\[C@@H]2C[C@@]2(C(=O)NS(=O)(=O)C2CC2)NC(=O)[C@@H]2C[C@@H](OC(=O)N3Cc4cccc(F)c4C3)CN2C1=O` [DANOPREVIR], the Kd was 0.52 nM in assay [1]; 0.13 nM in assay [2]; 1.6 nM in [3]; 6.5 nM in [4]; 1.6 nM in assay [5]; 1.6 nM in assay [6]. In addition, the Kd was found to be 6.5 nM in [7]; 19 µM in [8]; 10 µM in assay [9]; 0.004 µM in assay [10]; 21 nM in assay [11]; 2.5 nM in assay [12].
Regarding `CCC[C@H](NC(=O)[C@@H]1[C@H]2CCC[C@H]2CN1C(=O)[C@@H](NC(=O)[C@@H](NC(=O)c1cnccn1)C1CCCCC1)C(C)(C)C)C(=O)C(=O)NC1CC1` [TELAPREVIR], the Kd in assay [1] turned out to be 1000 nM; in [2], 340 nM; in assay [3], 8.6 nM; in assay [4], 66 nM; in assay [5], 8.5 nM; in assay [6] it was 17 nM. Further, the dissociation constant Kd in [7] is 67 nM; in [8], 4.1 µM; in assay [9], 3 µM; in assay [10], 14 µM; in [11], 66000 nM; in assay [12] it was 2000 nM.

Usually Kd stands for a measure of binding affinity in units of concentration.

For the origin of these results see ChEMBL document CHEMBL3120105, “Identification of weak points of hepatitis C virus NS3 protease inhibitors using surface plasmon resonance biosensor-based interaction kinetic analysis and genetic variants” (J Med Chem, 2014).
